# From PMC5090206, “Fluselenamyl: A Novel Benzoselenazole Derivative for PET Detection of Amyloid Plaques (Aβ) in Alzheimer’s Disease” (Scientific Reports, 2016)
# Where two headings read alike, the source gives them in different places.
# Legend:
# [1] = target: AD homogenates; settings: read-out: binding affinity with AD homogenates; cited from earlier work
# [2] = system: AD homogenates; experiment: Competition of unlabeled ligands against [18F]-9 binding on AD homogenates; set-up: species or system human; settings: for displacement of [18F]-9 specific binding: AD homogenates, unlabeled competitor
# Experimental: Literature precedents indicate the presence of at least three different binding sites, characterized as BS1, BS2 and BS3 on the Aβ fibrils in vitro[24] and extracts from AD homogenates. […] Further, to evaluate ability of [^18F]-9 for labeling Aβ in autopsy confirmed human brain sections, autoradiography and immunohistochemical correlations were also performed.
# [3] = comparison values, no reference given; cited from earlier work
# [4] = normal mice, cited from earlier work
# [5] = target: Aβ plaques (Homo sapiens, UniProt P05067); experiment: Histological staining of human AD brain tissue sections; settings: AD frontal lobe sections
# Chain of Aβ plaques (P05067 672-711 limits assumed): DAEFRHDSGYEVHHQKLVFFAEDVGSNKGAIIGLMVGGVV
# Experimental: To further assess ability of the 5 to label Aβ plaques in human brain, staining experiments were also performed with postmortem tissues from clinically-characterized AD patients[35][36] As a positive control, a highly specific anti-Aβ antibody (10D5, Eli Lilly, Indianapolis, IN) was used to ascertain the presence of Aβ plaques (Fig. 4A), using well-established procedures for assessment of Aβ plaques in postmortem brain[37]. […] Noticeably, 5 also indicated proficient and distinct labeling of plaque and leptomeningeal vessels (cerebral amyloid angiopathy; CAA) (Fig. 4B). […] This high specificity of 5 for Aβ could be attributed to presence of a benzoselenazole ring within Fluselenamyl. Overall, the ability and sensitivity of 5 to detect diffuse plaques and specificity for AD could represent an important advancement to enable PET imaging of mildly demented individuals, prior to onset of symptoms.
# Scientific Reports Version of August 4, 2016
# µm) were cut in the coronal plane on a freezing sliding microtome and stored at -20°C. 7,8 Tissue was stained as free-floating sections. Prior to staining, tissue sections were permeabilized with PBS-Tritron-X-100 (0.25%) for 30 minutes, and then blocked with 1% non-fat dry milk in PBS-Ttiton-X-100 for 60 minutes.
# Hippocampus tissue sections of APP+/-/PS1+/- and age-matched control BL/6 (WT, SI Figure 3) were incubated with fluorescent molecule 5 (100 nM dissolved in 1% ethanol in PBS) for 60 minutes, and washed 3-times with PBS-Triton-X-100.9 Thereafter, tissue sections were incubated with mouse-anti-Aβ (mHJ3.4) 7 that was directly conjugated to Alexa 568 for 90 minutes and washed 3-times with PBS-Triton-X-100.
# Tissue sections were mounted onto SuperFrost Plus slides, dried overnight at room temperature, and then sealed with Fluoromount G (Southern Biotech, Birmingham, AL). […]
# other neurodegenerative diseases (SI, Figure 4A & 4B). Sections were visualized, processed, and analyzed using a Pascal confocal microscope. […]
compound,measurement,setting,value
CNc1ccc(-c2nc3ccc(O)cc3s2)cc1F [[^18F]-Flutemetamol],Kd,[1],6.7 nM
[11CH3]Nc1ccc(-c2nc3ccc(O)cc3s2)cc1 [PiB],displacement of [18F]-9 specific binding,[2],significant displacement
CNc1ccc(/C=C/c2ccc(OCCOCCOCCF)nc2)cc1 [[^18F]-AV-45],Kd,[1],3.7 nM
CNc1ccc(/C=C/c2ccc(OCCOCCOCC[18F])nc2)cc1 [[^18F]-AV-45],log P,[3],2.4
same,%ID/g (brain),[4]; 2 min,7.33 ± 1.54 %ID/g
same,%ID/g (brain),[4]; 2 h,1.80 ± 0.07 %ID/g
same,brain uptake ratio 2 min/2 h,[4],4.07
O=C(O)c1cc(/N=N/c2ccc(-c3ccc(/N=N/c4ccc(O)c(C(=O)O)c4)cc3)cc2)ccc1O [Chrysamine G],displacement of [18F]-9 specific binding,[2],no displacement
thioflavin S [reference compound],staining of diffuse plaques,[5],only weak staining of diffuse plaques
CN(C)c1ccc(-c2cn3cc(I)ccc3n2)cc1 [IMPY],displacement of [18F]-9 specific binding,[2],significant displacement
same,Ki,[2]; competition against [18F]-9 on AD homogenates,6.3 nM
CNc1ccc(/C=C/c2ccc(OCCOCCOCCF)cc2)cc1 [[^18F]-Florbetaben],Kd,[1],16 nM
same,log P,[3],3.22
same,%ID/g (brain),[4]; 2 min,4.77 %ID/g
same,%ID/g (brain),[4]; 4 h,0.95 %ID/g
same,brain uptake ratio 2 min/4 h,[4],5.02
Nc1ccc(C=Cc2ccc(OCCOCCOCC[18F])nc2)cc1 [desmethylated],brain uptake of metabolites of [18F]-AV-45,[4]; at 2 min,4.5 % ID/g
